Assay results published in the supplement of paper PMC10307832.

Tests used:
Assay in all cases: relative viability (nuclei count vs DMSO), 5 days (fraction); higher = more cells survive
[1] = compound: N#CC1(c2ccc(NC(=O)c3cccnc3NCc3ccncc3)cc2)CCCC1 [Apatinib] + C[C@@H](Oc1cc(-c2cnn(C3CCNCC3)c2)cnc1N)c1c(Cl)ccc(F)c1Cl [Crizotinib] (partner 1 µM)
How it was run: (§1)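 After 5 days of treatment, lung cancer cells in 1536-well plates were fixed and stained in a single step (final 0.05% Triton X-100, 1% formaldehyde, 1 ug/ml Hoechst) and their nuclei counted on 4× images. Treatment had been applied by pin tool the day after seeding as one drug alone or as a fixed anchor-drug dose with five library-drug doses (not always all listed) in √10 steps. Relative viability is the nuclei count of treated wells divided by that of vehicle wells, and values are medians of duplicate plates.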

[2] = compound: CN(C)C(=N)NC(=N)N [Metformin] + NC(=O)Nc1cc(-c2cccc(F)c2)sc1C(=O)N[C@H]1CCCNC1 [AZD7762] (partner 0.2 µM)
How it was run: as §1

[3] = compound: N#CC1(c2ccc(NC(=O)c3cccnc3NCc3ccncc3)cc2)CCCC1 [Apatinib] + Nc1ncn([C@H]2C[C@H](O)[C@@H](CO)O2)c(=O)n1 [Decitabine] (partner 2 µM)
How it was run: as §1

[4] = compound: CN(C)C(=N)NC(=N)N [Metformin] + CC(=O)c1c(C)c2cnc(Nc3ccc(N4CCNCC4)cn3)nc2n(C2CCCC2)c1=O [Palbociclib] (partner 0.5 µM)
How it was run: as §1

Cell Line | relative viability ([1]; first compound 0.08 µM) | relative viability ([1]; first compound 0.253 µM) | relative viability ([1]; first compound 0.8 µM) | relative viability ([1]; first compound 2.53 µM) | relative viability ([1]; first compound 8 µM) | relative viability ([2]; first compound 10 µM) | relative viability ([2]; first compound 31.62 µM) | relative viability ([2]; first compound 100 µM) | relative viability ([2]; first compound 316.23 µM) | relative viability ([2]; first compound 1000 µM) | relative viability ([3]; first compound 0.253 µM) | relative viability ([3]; first compound 0.8 µM) | relative viability ([3]; first compound 2.53 µM) | relative viability ([3]; first compound 8 µM) | relative viability ([4]; first compound 10 µM) | relative viability ([4]; first compound 31.62 µM) | relative viability ([4]; first compound 100 µM) | relative viability ([4]; first compound 316.23 µM) | relative viability ([4]; first compound 1000 µM) | relative viability ([3]; first compound 0.08 µM)
EMC-BAC-2 | 0.726 | 0.73 | 0.764 | 0.633 | 0.475 | 1.14 | 1.26 | 1.17 | 1.22 | 1 | 0.967 | 0.925 | 0.954 | 1.01 | 0.499 | 0.547 | 0.502 | 0.496 | 0.423 | 
NCI-H1355 | 1.04 | 1.03 | 1.03 | 0.943 | 0.815 | 0.735 | 0.656 | 0.694 | 0.732 | 0.72 | 0.349 | 0.39 | 0.367 | 0.447 | 0.341 | 0.36 | 0.382 | 0.358 | 0.383 | 0.35
SW 900 |  |  |  |  |  | 0.666 | 0.624 |  | 0.537 | 0.761 | 0.479 | 0.447 | 0.562 | 0.652 | 0.542 | 0.536 |  | 0.497 | 0.578 | 0.417
NCI-H1793 |  |  |  |  |  | 0.535 | 0.47 | 0.784 | 0.396 | 0.505 | 0.535 | 0.516 | 0.541 | 0.564 | 0.297 | 0.39 | 0.387 | 0.353 | 0.361 | 0.555
NCI-H1563 | 0.824 | 0.848 | 0.864 | 0.851 | 0.797 |  |  |  |  |  |  |  |  |  |  |  |  |  |  | 
EBC-1 | 0.211 | 0.185 | 0.178 | 0.211 | 0.208 |  |  |  |  |  |  |  |  |  |  |  |  |  |  | 
NCI-H596 | 0.923 | 1.12 | 1.07 | 0.861 | 0.969 | 1.18 | 1.13 | 1.3 | 1.08 | 1.23 | 1.18 | 0.916 | 1.04 | 1.08 |  |  |  |  |  | 1
NCI-H2228 | 0.542 | 0.418 | 0.506 | 0.42 | 0.262 |  |  |  |  |  |  |  |  |  | 0.626 | 0.782 | 0.747 | 0.526 | 0.946 | 
NCI-H661 | 1.02 | 1.03 | 1.02 | 0.934 | 0.916 |  |  |  |  |  | 0.543 | 0.542 | 0.581 | 0.599 | 0.382 | 0.391 | 0.371 | 0.37 | 0.365 | 0.615
SK-MES-1 | 0.983 | 0.937 | 0.897 | 0.955 | 0.796 |  |  |  |  |  | 0.36 | 0.488 | 0.975 | 0.903 | 0.248 | 0.205 | 0.266 | 0.204 | 0.232 | 0.404
SK-LU-1 | 1.04 | 0.806 | 0.761 | 0.785 | 0.566 |  |  |  |  |  | 0.782 | 0.671 | 0.667 | 0.675 | 0.358 | 0.388 | 0.365 | 0.358 | 0.367 | 0.724
COR-L23 | 0.627 | 0.647 | 0.648 | 0.52 | 0.565 |  |  |  |  |  | 0.509 | 0.452 | 0.427 | 0.413 | 0.237 | 0.289 | 0.218 | 0.208 | 0.249 | 0.514
NCI-H1648 |  |  |  |  |  |  | 0.575 | 0.681 | 0.574 | 0.663 | 0.502 | 0.479 | 0.428 | 0.508 |  | 0.299 | 0.296 | 0.294 | 0.294 | 0.66
COR-L 105 | 0.871 | 0.696 | 0.796 | 0.727 | 0.586 |  |  |  |  |  | 0.716 | 0.631 | 0.711 | 0.632 | 0.419 | 0.44 | 0.464 | 0.433 | 0.441 | 0.706
NCI-H520 | 0.912 | 0.701 | 0.737 | 0.614 | 0.45 |  |  |  |  |  | 0.476 | 0.559 | 0.5 | 0.486 | 0.271 | 0.269 | 0.277 | 0.22 | 0.269 | 0.544
NCI-H1395 |  |  |  |  |  | 0.415 | 0.389 | 0.41 | 0.428 | 0.41 | 0.808 | 0.781 | 0.744 | 0.859 | 0.504 | 0.716 | 0.627 | 0.508 | 0.448 | 0.747
NCI-H2023 | 0.717 | 0.737 | 0.69 | 0.699 | 0.643 |  |  |  |  |  | 0.261 | 0.269 | 0.307 | 0.472 | 0.321 | 0.341 | 0.3 | 0.285 | 0.237 | 0.233
A549 | 0.818 | 0.917 | 0.737 | 0.61 | 0.56 |  |  |  |  |  | 0.264 | 0.247 | 0.344 | 0.448 |  |  |  |  |  | 0.257
NCI-H2342 |  |  |  |  |  |  | 0.441 | 0.366 | 0.46 | 0.386 | 0.767 | 0.709 | 0.799 | 0.791 |  | 0.681 | 0.548 | 0.522 | 0.519 | 0.704
NCI-H2009 | 1.05 | 1.1 | 1.02 | 0.814 | 0.698 |  |  |  |  |  | 0.411 | 0.35 | 0.508 | 0.581 | 0.194 | 0.321 | 0.228 | 0.122 | 0.202 | 0.367
NCI-H1299 | 0.998 | 0.974 | 0.517 | 0.961 | 0.77 |  |  |  |  |  |  |  |  |  |  |  |  |  |  | 
UMC-11 | 0.619 | 0.57 | 0.617 | 0.519 | 0.493 |  |  |  |  |  | 0.64 | 0.575 | 0.714 | 0.629 | 0.336 | 0.349 | 0.333 | 0.311 | 0.341 | 0.711
NCI-H1650 | 1.13 | 1.03 | 0.9 | 0.92 | 0.842 |  |  |  |  |  | 0.55 | 0.416 | 0.64 | 0.589 | 0.316 | 0.381 | 0.424 | 0.229 | 0.305 | 0.495
NCI-H522 |  |  |  |  |  | 1.02 | 0.986 | 0.97 | 0.985 | 1.07 | 0.63 | 0.749 | 0.606 | 0.672 | 1.7 | 1.24 | 1.06 | 1.08 | 1.21 | 0.685
